From PubChem BioAssay (NCI)
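Growth conditions: 96-well plates. Treatment: test compound, 48 hours, 5 concentrations. Analysis: linear interpolation between bracketing concentrations; unreached endpoints set to highest concentration. TGI marks complete inhibition of growth.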

Columns and labels:
Experiment in all cases: NCI tumour cell line growth inhibition, 48 h
[1] = system: A498 renal
[2] = system: A549 NSCLC
[3] = system: CAKI-1 renal
[4] = system: CCRF-CEM leukemia
[5] = system: COLO 205 colon
[6] = system: DLD-1 colon
[7] = system: DMS 114 small cell lung
[8] = system: DMS 273 small cell lung
[9] = system: EKVX NSCLC
[10] = system: HCC-2998 colon
[11] = system: HCT-116 colon
[12] = system: HCT-15 colon
[13] = system: HL-60(TB) leukemia
[14] = system: HOP-18 NSCLC
[15] = system: HOP-62 NSCLC
[16] = system: HOP-92 NSCLC
[17] = system: HT29 colon
[18] = system: IGROV1 ovarian
[19] = system: K-562 leukemia
[20] = system: KM12 colon
[21] = system: KM20L2 colon
[22] = system: LOX IMVI melanoma
[23] = system: M19-MEL melanoma
[24] = system: MALME-3M melanoma
[25] = system: MCF7 breast
[26] = system: MOLT-4 leukemia
[27] = system: NCI-H226 lung
[28] = system: NCI-H23 lung
[29] = system: NCI-H460 lung
[30] = system: NCI-H522 lung
[31] = system: NCI/ADR-RES ovarian
[32] = system: OVCAR-3 ovarian
[33] = system: OVCAR-4 ovarian
[34] = system: OVCAR-5 ovarian
[35] = system: OVCAR-8 ovarian
[36] = system: P388 leukemia
[37] = system: P388/ADR leukemia
[38] = system: RPMI-8226 leukemia
[39] = system: RXF 393 renal
[40] = system: SF-268 CNS
[41] = system: SF-295 CNS
[42] = system: SF-539 CNS
[43] = system: SK-MEL-2 melanoma
[44] = system: SK-MEL-28 melanoma
[45] = system: SK-MEL-5 melanoma
[46] = system: SK-OV-3 ovarian
[47] = system: SN12C renal
[48] = system: SN12K1 renal
[49] = system: SNB-19 CNS
[50] = system: SNB-75 CNS
[51] = system: SNB-78 CNS
[52] = system: SW-620 colon
[53] = system: U251 CNS
[54] = system: UACC-257 melanoma
[55] = system: UACC-62 melanoma
[56] = system: UO-31 renal
[57] = system: XF 498 CNS
[58] = system: 786-0 renal
[59] = system: ACHN renal
[60] = system: LXFL 529 NSCLC
[61] = system: M14 melanoma
[62] = system: RXF-631 renal
[63] = system: SR leukemia
[64] = system: TK-10 renal
[65] = system: BT-549 breast
[66] = system: DU-145 prostate
[67] = system: MDA-MB-231 breast
[68] = system: MDA-MB-435
[69] = system: MDA-N
[70] = system: PC-3 prostate
[71] = system: T-47D breast

## CC1=NCCc2cc3[nH]c4ccccc4c3cc21
[1]
  TGI: 46.1 µM
[2]
  TGI: 103 µM
[3]
  TGI: 57.6 µM
[4]
  TGI: 36.9 µM
[5]
  TGI: 24.5 µM
[6]
  TGI: 73.1 µM
[7]
  TGI: 23.4 µM
[8]
  TGI: 50.6 µM
[9]
  TGI: 95.8 µM
[10]
  TGI: 53.8 µM
[11]
  TGI: 45.5 µM
[12]
  TGI: 78.4 µM
[13]
  TGI: 37.6 µM
[14]
  TGI: 50 µM
[15]
  TGI: 111 µM
[16]
  TGI: 5.45 µM
[17]
  TGI: 48.7 µM
[18]
  TGI: > 85.3 µM
[19]
  TGI: 22.9 µM
[20]
  TGI: 78.8 µM
[21]
  TGI: 45.7 µM
[22]
  TGI: 37.7 µM
[23]
  TGI: 43.6 µM
[24]
  TGI: 22.3 µM
[25]
  TGI: 69.7 µM
[26]
  TGI: 34.3 µM
[27]
  TGI: 37.9 µM
[28]
  TGI: 83.8 µM
[29]
  TGI: 37.1 µM
[30]
  TGI: 84.9 µM
[31]
  TGI: 83.8 µM
[32]
  TGI: 114 µM
[33]
  TGI: 110 µM
[34]
  TGI: 56.6 µM
[35]
  TGI: > 88.5 µM
[36]
  TGI: 21.9 µM
[37]
  TGI: 34.2 µM
[38]
  TGI: 40.3 µM
[39]
  TGI: 23.4 µM
[40]
  TGI: 77.7 µM
[41]
  TGI: 46.8 µM
[42]
  TGI: 32 µM
[43]
  TGI: 29.3 µM
[44]
  TGI: 24.6 µM
[45]
  TGI: 28.1 µM
[46]
  TGI: 62.6 µM
[47]
  TGI: 62.9 µM
[48]
  TGI: 44.6 µM
[49]
  TGI: 116 µM
[50]
  TGI: 70 µM
[51]
  TGI: 86.9 µM
[52]
  TGI: 52.5 µM
[53]
  TGI: 79 µM
[54]
  TGI: 24.6 µM
[55]
  TGI: 39.8 µM
[56]
  TGI: 54.9 µM
[57]
  TGI: 30.5 µM

## Cc1cc(NS(=O)(=O)c2ccc(NC(=O)c3cccn4c(=O)c5ccccc5nc34)cc2)no1
[58]
  TGI: > 100 µM
[1]
  TGI: > 100 µM
[2]
  TGI: > 100 µM
[59]
  TGI: > 100 µM
[3]
  TGI: > 100 µM
[4]
  TGI: > 100 µM
[5]
  TGI: > 100 µM
[6]
  TGI: > 100 µM
[7]
  TGI: > 100 µM
[8]
  TGI: > 100 µM
[9]
  TGI: > 100 µM
[10]
  TGI: > 100 µM
[11]
  TGI: > 100 µM
[13]
  TGI: > 100 µM
[14]
  TGI: > 100 µM
[15]
  TGI: > 100 µM
[16]
  TGI: > 100 µM
[17]
  TGI: > 100 µM
[18]
  TGI: > 100 µM
[19]
  TGI: > 100 µM
[20]
  TGI: > 100 µM
[21]
  TGI: > 100 µM
[22]
  TGI: > 100 µM
[60]
  TGI: > 100 µM
[61]
  TGI: > 100 µM
[23]
  TGI: > 100 µM
[24]
  TGI: > 100 µM
[26]
  TGI: > 100 µM
[27]
  TGI: > 100 µM
[28]
  TGI: > 100 µM
[29]
  TGI: > 100 µM
[30]
  TGI: > 100 µM
[32]
  TGI: > 100 µM
[33]
  TGI: > 100 µM
[35]
  TGI: > 100 µM
[38]
  TGI: > 100 µM
[39]
  TGI: > 100 µM
[62]
  TGI: > 100 µM
[40]
  TGI: > 100 µM
[41]
  TGI: > 100 µM
[42]
  TGI: > 100 µM
[44]
  TGI: > 100 µM
[45]
  TGI: > 100 µM
[46]
  TGI: > 100 µM
[47]
  TGI: > 100 µM
[49]
  TGI: > 100 µM
[50]
  TGI: > 100 µM
[51]
  TGI: > 100 µM
[63]
  TGI: > 100 µM
[52]
  TGI: > 100 µM
[64]
  TGI: > 100 µM
[53]
  TGI: > 100 µM
[54]
  TGI: > 100 µM
[55]
  TGI: > 100 µM
[56]
  TGI: > 100 µM
[57]
  TGI: > 100 µM

## Nc1nc(-c2ccccc2)c(Cl)c(-c2cc(Cl)ccc2O)n1
[58]
  TGI: 57.8 µM
[1]
  TGI: > 76.5 µM
[2]
  TGI: 71 µM
[59]
  TGI: 21.5 µM
[65]
  TGI: > 100 µM
[3]
  TGI: 47.2 µM
[4]
  TGI: > 100 µM
[5]
  TGI: > 100 µM
[6]
  TGI: > 100 µM
[7]
  TGI: 66.6 µM
[8]
  TGI: 90.9 µM
[66]
  TGI: > 100 µM
[9]
  TGI: > 100 µM
[10]
  TGI: > 100 µM
[11]
  TGI: 27.1 µM
[12]
  TGI: > 100 µM
[13]
  TGI: > 100 µM
[14]
  TGI: > 94.3 µM
[15]
  TGI: 20.1 µM
[16]
  TGI: > 97.3 µM
[17]
  TGI: > 100 µM
[18]
  TGI: 54.7 µM
[19]
  TGI: > 46.4 µM
[20]
  TGI: > 87.9 µM
[21]
  TGI: > 100 µM
[22]
  TGI: > 59.2 µM
[60]
  TGI: > 73.1 µM
[61]
  TGI: > 100 µM
[23]
  TGI: > 100 µM
[24]
  TGI: > 100 µM
[25]
  TGI: > 100 µM
[67]
  TGI: > 100 µM
[68]
  TGI: > 100 µM
[69]
  TGI: > 100 µM
[26]
  TGI: > 100 µM
[27]
  TGI: 61.3 µM
[28]
  TGI: 67.2 µM
[29]
  TGI: 99.3 µM
[30]
  TGI: > 62.9 µM
[32]
  TGI: 24.2 µM
[33]
  TGI: 66.4 µM
[34]
  TGI: > 100 µM
[35]
  TGI: 33.8 µM
[70]
  TGI: > 100 µM
[38]
  TGI: > 100 µM
[39]
  TGI: 41.9 µM
[62]
  TGI: > 100 µM
[40]
  TGI: > 83.1 µM
[41]
  TGI: > 94.3 µM
[42]
  TGI: 66.5 µM
[43]
  TGI: 99.8 µM
[44]
  TGI: > 100 µM
[45]
  TGI: 59.6 µM
[46]
  TGI: 49.3 µM
[47]
  TGI: 87.5 µM
[49]
  TGI: 47 µM
[50]
  TGI: 43.9 µM
[51]
  TGI: > 82.7 µM
[63]
  TGI: > 100 µM
[52]
  TGI: > 100 µM
[71]
  TGI: 36.4 µM
[64]
  TGI: 42.6 µM
[53]
  TGI: 45.1 µM
[54]
  TGI: > 100 µM
[55]
  TGI: > 100 µM
[56]
  TGI: 46.6 µM
[57]
  TGI: 47.5 µM

## CCOC(=O)C1=C(NC(C)(C)C)OC/C1=N\NC(=O)Cc1ccccc1
[58]
  TGI: > 100 µM
[1]
  TGI: > 100 µM
[2]
  TGI: > 100 µM
[59]
  TGI: > 100 µM
[3]
  TGI: > 100 µM
[4]
  TGI: > 100 µM
[5]
  TGI: > 100 µM
[6]
  TGI: > 100 µM
[7]
  TGI: > 100 µM
[8]
  TGI: > 100 µM
[9]
  TGI: > 100 µM
[10]
  TGI: > 100 µM
[11]
  TGI: > 100 µM
[12]
  TGI: > 100 µM
[13]
  TGI: > 100 µM
[14]
  TGI: > 100 µM
[15]
  TGI: > 100 µM
[16]
  TGI: > 100 µM
[17]
  TGI: > 100 µM
[18]
  TGI: > 100 µM
[19]
  TGI: > 100 µM
[20]
  TGI: > 100 µM
[21]
  TGI: > 100 µM
[22]
  TGI: > 100 µM
[60]
  TGI: > 100 µM
[61]
  TGI: > 100 µM
[23]
  TGI: > 100 µM
[24]
  TGI: > 100 µM
[26]
  TGI: > 100 µM
[27]
  TGI: > 100 µM
[28]
  TGI: > 100 µM
[29]
  TGI: > 100 µM
[30]
  TGI: > 100 µM
[32]
  TGI: > 100 µM
[33]
  TGI: > 100 µM
[34]
  TGI: > 100 µM
[35]
  TGI: > 100 µM
[39]
  TGI: > 100 µM
[62]
  TGI: > 100 µM
[40]
  TGI: > 100 µM
[41]
  TGI: > 100 µM
[42]
  TGI: > 100 µM
[43]
  TGI: > 100 µM
[44]
  TGI: > 100 µM
[45]
  TGI: > 100 µM
[46]
  TGI: > 100 µM
[47]
  TGI: > 100 µM
[49]
  TGI: > 100 µM
[50]
  TGI: > 100 µM
[51]
  TGI: > 100 µM
[63]
  TGI: > 100 µM
[52]
  TGI: > 100 µM
[64]
  TGI: > 100 µM
[53]
  TGI: > 100 µM
[54]
  TGI: > 100 µM
[55]
  TGI: > 100 µM
[56]
  TGI: > 100 µM
[57]
  TGI: > 100 µM
